# Assays:
# Experiment in all cases: ≥ marks a high value that may be exact or a test limit, other limits are often not marked, values filed in µg/mL are converted to µM
# [1] = tested on: Candida albicans ATCC 10231
# [2] = tested on: Enterococcus faecalis PCM 2673
# [3] = tested on: Escherichia coli ATCC 25922
# [4] = tested on: Pseudomonas aeruginosa ATCC 9027
# [5] = tested on: Staphylococcus aureus ATCC 25923
# [6] = tested on: Bacillus subtilis DSM 347
# [7] = tested on: Escherichia coli DSM 1116
# [8] = tested on: Franconibacter helveticus DSM 18390
# [9] = tested on: Staphylococcus xylosus DSM 20287
# [10] = tested on: Acinetobacter baumannii ATCC 17978
# [11] = tested on: Bacillus megaterium ATCC 10778
# [12] = tested on: Bacillus subtilis ATCC 6633
# Candida albicans MDM8 = tested on: Candida albicans MDM8
# [13] = tested on: Candida tropicalis IOC 4560
# [14] = tested on: Enterobacter cloacae beta-12
# [15] = tested on: Escherichia coli NCTC 12923
# Escherichia coli SBS 363 = tested on: Escherichia coli SBS 363
# [16] = tested on: Klebsiella pneumoniae NCTC 13368
# Micrococcus luteus A270 = tested on: Micrococcus luteus A270
# [17] = tested on: Pseudomonas aeruginosa NCIB 10421
# [18] = tested on: Pseudomonas aeruginosa NCTC 13437
# [19] = tested on: Pseudomonas aeruginosa PAO1
# [20] = tested on: Serratia marcescens ATCC 4112
# [21] = tested on: Staphylococcus aureus ATCC 29213
# [22] = tested on: Staphylococcus aureus ATCC 9144
# [23] = tested on: Staphylococcus aureus USA 300
# Escherichia coli UB1005 = tested on: Escherichia coli UB1005
# [24] = tested on: Salmonella enterica subsp. enterica serovar Pullorum C79-13
# [25] = tested on: Salmonella enterica subsp. enterica serovar Typhi CMCC 50071
# [26] = tested on: Salmonella enterica subsp. enterica serovar Typhimurium ATCC 14028
# [27] = tested on: Salmonella enterica subsp. enterica serovar Typhimurium C77-31
# [28] = tested on: Staphylococcus epidermidis ATCC 12228
# [29] = tested on: Escherichia coli ATCC 8739
# [30] = tested on: Staphylococcus aureus HNCMO 112011
# [31] = tested on: Enterococcus faecalis ATCC 2912
# [32] = tested on: Pseudomonas aeruginosa ATCC 15442
# [33] = tested on: Staphylococcus aureus ATCC 6538
# [34] = tested on: Staphylococcus hominis ATCC 27844
# [35] = tested on: Acinetobacter baumannii ATCC 19606
# [36] = tested on: Candida albicans ATCC 90028
# [37] = tested on: Candida parapsilosis ATCC 22019
# [38] = tested on: Enterococcus faecalis ATCC 29212
# [39] = tested on: Klebsiella pneumoniae ATCC 13883
# [40] = tested on: Listeria ivanovii Li 4pVS2
# [41] = tested on: Pseudomonas aeruginosa ATCC 27853
# [42] = tested on: Streptococcus pyogenes ATCC 19615
compound,measurement,setting,value
CC[C@H](C)[C@H](NC(=O)[C@H](CCCCN)NC(=O)[C@H](CCCCN)NC(=O)[C@@H](NC(=O)[C@@H](NC(=O)[C@H](CC(=O)O)NC(=O)[C@H](Cc1ccccc1)NC(=O)[C@H](C)NC(=O)CN)[C@@H](C)CC)[C@@H](C)CC)C(=O)N[C@@H](C)C(=O)N[C@@H](CCC(=O)O)C(=O)N[C@@H](CO)C(=O)N[C@@H](Cc1ccccc1)C(N)=O [GAFDIIKKIAESF],MIC,[1],178 µM
same,MIC,[2],≥ 356 µM
same,MIC,[3],178 µM
same,MIC,[4],356 µM
same,MIC,[5],> 356 µM
CC[C@H](C)[C@H](N)C(=O)N[C@@H](C)C(=O)NCC(=O)N[C@@H](CCCCN)C(=O)N[C@H](C(=O)N[C@@H](C)C(=O)N[C@@H](CCCCN)C(=O)N[C@H](C(=O)N[C@@H](C)C(=O)NCC(=O)N[C@@H](CCCCN)C(=O)N[C@H](C(=O)N[C@@H](C)C(=O)N[C@@H](CCCCN)C(=O)N[C@H](C(=O)N[C@@H](C)C(=O)NCC(=O)N[C@@H](CCCCN)C(=O)N[C@H](C(=O)N[C@@H](C)C(N)=O)[C@@H](C)CC)[C@@H](C)CC)[C@@H](C)CC)[C@@H](C)CC)[C@@H](C)CC [IAGKIAKIAGKIAKIAGKIA],MIC,[6],1.46 µM
same,MIC,[7],4.13 µM
same,MIC,[8],2.92 µM
same,MIC,[9],2.07 µM
CC[C@H](C)[C@H](N)C(=O)N[C@@H](CC(C)C)C(=O)N[C@@H](CCCCN)C(=O)N[C@@H](CCCCN)C(=O)N[C@H](C(=O)N[C@@H](Cc1c[nH]c2ccccc12)C(=O)N[C@@H](CCC(=O)O)C(=O)NCC(=O)N[C@H](C(=O)N[C@@H](CCCCN)C(=O)N[C@@H](CO)C(=O)N[C@@H](CC(C)C)C(=O)N[C@@H](Cc1ccccc1)C(N)=O)[C@@H](C)CC)[C@@H](C)CC [ILKKIWEGIKSLF],MIC,[10],2.54 µM
same,MIC,[11],0.78 µM
same,MIC,[12],0.78 µM
same,MIC,Candida albicans MDM8,1.56 µM
same,MIC,[13],0.78 µM
same,MIC,[14],3.13 µM
same,MIC,[15],5.08 µM
same,MIC,Escherichia coli SBS 363,0.78 µM
same,MIC,[16],10.2 µM
same,MIC,Micrococcus luteus A270,0.78 µM
same,MIC,[17],6.25 µM
same,MIC,[18],≥ 40.6 µM
same,MIC,[19],> 81.3 µM
same,MIC,[20],0.36 µM
same,MIC,[21],1.56 µM
same,MIC,[22],5.08 µM
same,MIC,[23],10.2 µM
CSCC[C@H](NC(=O)[C@H](CCCN=C(N)N)NC(=O)[C@H](Cc1c[nH]c2ccccc12)NC(=O)[C@H](CCC(N)=O)NC(=O)[C@H](Cc1c[nH]c2ccccc12)NC(=O)[C@H](CCCN=C(N)N)NC(=O)[C@H](CCCN=C(N)N)NC(=O)[C@H](CS)NC(=O)[C@@H](N)CCCCN)C(=O)N[C@@H](CCCCN)C(=O)N[C@@H](CCCCN)C(N)=O [KCRRWQWRMKK],MIC,Escherichia coli UB1005,≥ 128 µM
same,MIC,[24],≥ 128 µM
same,MIC,[25],≥ 128 µM
same,MIC,[26],> 128 µM
same,MIC,[27],≥ 128 µM
same,MIC,[5],128 µM
same,MIC,[21],> 128 µM
same,MIC,[28],> 128 µM
CC(C)C[C@H](NC(=O)[C@@H]1CCCN1C(=O)[C@H](CCCN=C(N)N)NC(=O)[C@H](CCCN=C(N)N)NC(=O)[C@H](CS)NC(=O)[C@H](CCC(N)=O)NC(=O)[C@@H](N)CCC(N)=O)C(=O)N[C@@H](Cc1ccc(O)cc1)C(=O)N[C@@H](CS)C(=O)N[C@@H](CCCN=C(N)N)C(=O)N[C@@H](CCCN=C(N)N)C(=O)N[C@@H](CCCN=C(N)N)C(=O)O [QQCRRPLYCRRR],MIC,[10],25 µM
same,MIC,[29],25 µM
same,MIC,[30],25 µM
CSCC[C@H](NC(=O)[C@H](CCC(N)=O)NC(=O)[C@H](CO)NC(=O)CNC(=O)[C@H](CCCCN)NC(=O)[C@@H](N)CCCN=C(N)N)C(=O)NCC(=O)N[C@@H](CCCCN)C(=O)N[C@@H](CCCCN)C(=O)N[C@@H](CS)C(=O)N[C@@H](CCC(=O)O)C(=O)N[C@@H](CS)C(=O)N1CCC[C@H]1C(=O)O [RKGSQMGKKCECP],MIC,[1],3.2 µM
same,MIC,[31],≥ 40 µM
same,MIC,[3],13 µM
same,MIC,[32],13 µM
same,MIC,[33],3.2 µM
same,MIC,[34],≥ 40 µM
CC[C@H](C)[C@H](NC(=O)[C@H](CCCN=C(N)N)NC(=O)[C@H](Cc1ccc(O)cc1)NC(=O)CNC(=O)[C@H](Cc1ccc(O)cc1)NC(=O)[C@H](CCCN=C(N)N)NC(=O)[C@H](CC(C)C)NC(=O)[C@H](C)NC(=O)[C@H](CCC(N)=O)NC(=O)[C@H](CCC(=O)O)NC(=O)[C@@H](NC(=O)[C@H](CCC(N)=O)NC(=O)[C@H](CCCN=C(N)N)NC(=O)[C@H](CCSC)NC(=O)[C@H](Cc1ccc(O)cc1)NC(=O)[C@H](CCC(N)=O)NC(=O)[C@@H](N)CCCN=C(N)N)[C@@H](C)CC)C(=O)N[C@@H](CO)C(=O)N[C@@H](CCCN=C(N)N)C(=O)N[C@@H](CCCN=C(N)N)C(N)=O [RQYMRQIEQALRYGYRISRR],MIC,[35],6.25 µM
same,MIC,[36],≥ 200 µM
same,MIC,[37],≥ 50 µM
same,MIC,[38],> 100 µM
same,MIC,[3],6.25 µM
same,MIC,[39],≥ 80 µM
same,MIC,[40],≥ 50 µM
same,MIC,[41],25 µM
same,MIC,[5],100 µM
same,MIC,[42],≥ 50 µM
